# Source: ChEMBL document CHEMBL3120093 (J Med Chem, 2014)
# Key:
# [1] = Permeability of the compound at PH 7.4 by PAMPA; format: ADME; details: for Papp: read-out: permeability
# [2] = AUC in rat at 5 mg/kg, po after 4 hrs; format: ADME, organism-based; parameters: time < 4 hr, dose 5 mg/kg, route oral; details: plasma
# [3] = Plasma concentration in rat at 5 mg/kg, po after 4 hrs; format: ADME, organism-based; parameters: dose 5 mg/kg, route oral
# [4] = Drug uptake in rat liver at 5 mg/kg, po after 4 hrs; format: ADME, organism-based; parameters: dose 5 mg/kg, route oral; details: read-out: Drug uptake
# [5] = AUC in rat at 5 mg/kg, po after 24 hrs; format: ADME, organism-based; parameters: time < 24 hr, dose 5 mg/kg, route oral; details: plasma
# [6] = AUC in dog at 3.5 mg/kg, po after 24 hrs; format: ADME, organism-based, Canis lupus familiaris; parameters: time < 24 hr, dose 3.5 mg/kg, route oral; details: plasma
# [7] = Drug uptake in rat liver at 5 mg/kg, po after 24 hrs; format: ADME, organism-based; parameters: dose 5 mg/kg, route oral; details: read-out: Drug uptake
# [8] = Oral bioavailability in rat at 5 mg/kg after 24 hrs; format: ADME, organism-based; details: in vivo
# [9] = Plasma concentration in dog at 3.5 mg/kg, po after 24 hrs; format: ADME, organism-based, Canis lupus familiaris; parameters: dose 3.5 mg/kg, route oral
# [10] = Oral bioavailability in dog at 3.5 mg/kg after 24 hrs; format: ADME, organism-based, Canis lupus familiaris; details: in vivo
# [11] = Plasma concentration in dog at 3 mg/kg, po after 24 hrs; format: ADME, organism-based, Canis lupus familiaris; parameters: dose 3 mg/kg, route oral
# [12] = Clearance in mouse at 5 mg/kg, iv after 24 hrs; format: ADME, organism-based; parameters: dose 5 mg/kg, route intravenous; details: in vivo
# [13] = Volume of distribution in mouse at 5 mg/kg, iv after 24 hrs; format: ADME, organism-based; parameters: dose 5 mg/kg, route intravenous; details: in vivo
# [14] = Drug uptake in mouse liver at 20 mg/kg, po after 24 hrs; format: ADME, organism-based; parameters: dose 20 mg/kg, route oral; details: read-out: Drug uptake
# [15] = Half life in rat at 2 mg/kg, iv after 24 hrs; format: ADME, organism-based; parameters: dose 2 mg/kg, route intravenous; details: in vivo
# [16] = Oral bioavailability in dog at 3 mg/kg after 24 hrs; format: ADME, organism-based, Canis lupus familiaris; details: plasma
# [17] = Half life in mouse at 5 mg/kg, iv after 24 hrs; format: ADME, organism-based; parameters: dose 5 mg/kg, route intravenous; details: in vivo
# [18] = AUC in mouse at 20 mg/kg, po after 24 hrs; format: ADME, organism-based; parameters: time < 24 hr, dose 20 mg/kg, route oral; details: plasma
# [19] = AUC in dog at 3 mg/kg, po after 24 hrs; format: ADME, organism-based, Canis lupus familiaris; parameters: time < 24 hr, dose 3 mg/kg, route oral; details: plasma
# [20] = Volume of distribution in dog at 1 mg/kg, iv after 24 hrs; format: ADME, organism-based, Canis lupus familiaris; parameters: dose 1 mg/kg, route intravenous; details: in vivo
# [21] = Oral bioavailability in mouse at 20 mg/kg after 24 hrs; format: ADME, organism-based; details: plasma
# [22] = Clearance in rat at 2 mg/kg, iv after 24 hrs; format: ADME, organism-based; parameters: dose 2 mg/kg, route intravenous; details: in vivo
# [23] = Volume of distribution in rat at 2 mg/kg, iv after 24 hrs; format: ADME, organism-based; parameters: dose 2 mg/kg, route intravenous; details: in vivo
# [24] = Plasma concentration in mouse at 20 mg/kg, po after 24 hrs; format: ADME, organism-based; parameters: dose 20 mg/kg, route oral
# [25] = Clearance in rat at 2 mg/kg, iv after 4 hrs; format: ADME, organism-based; parameters: dose 2 mg/kg, route intravenous; details: in vivo
compound,measurement,setting,value
CC[C@H](NC(=O)OC)C(=O)N1CCC[C@H]1c1ncc(-c2ccc(-c3ccc(-c4cnc([C@@H]5CCCN5C(=O)[C@H](CC)NC(=O)OC)[nH]4)cc3)cc2)[nH]1,Papp,[1],38.4 ×10⁻⁶ cm/s
COC(=O)N[C@H](C(=O)N1CCC[C@H]1c1ncc(-c2ccc(-c3ccc(-c4cnc([C@@H]5CCCN5C(=O)[C@@H](NC(=O)OC)[C@@H](C)OC)[nH]4)cc3)cc2)[nH]1)[C@@H](C)OC,AUC at 4 h,[2],0.472 µM·h
same,Papp,[1],27.5 ×10⁻⁶ cm/s
same,concentration at 4 h,[3],121 nM
same,concentration at 4 h,[4],453 nM
COC(=O)N[C@H](C(=O)N1CCC[C@H]1c1ncc(-c2ccc(-c3ccc(-c4cnc([C@@H]5CCCN5C(=O)[C@@H](NC(=O)OC)C5CC5)[nH]4)cc3)cc2)[nH]1)C1CC1,Papp,[1],50 ×10⁻⁶ cm/s
CCN(CC)[C@@H](C(=O)N1CCC[C@H]1c1ncc(-c2ccc(-c3ccc(-c4cnc([C@@H]5CCCN5C(=O)[C@H](C)NC(=O)OC)[nH]4)cc3)cc2)[nH]1)c1ccccc1,AUC at 4 h,[2],0.049 µM·h
same,AUC at 24 h,[5],0.165 µM·h
same,Papp,[1],25.3 ×10⁻⁶ cm/s
same,AUC at 24 h,[6],1.2 µM·h
same,concentration at 24 h,[7],178 nM
same,concentration at 4 h,[3],30 nM
same,bioavailability,[8],3.6%
same,concentration at 24 h,[9],9 nM
same,bioavailability,[10],66%
same,concentration at 4 h,[4],1830 nM
CC[C@H](NC(=O)OC)C(=O)N1CCC[C@H]1c1ncc(-c2ccc(-c3ccc(-c4cnc([C@@H]5CCCN5C(=O)[C@@H](c5ccccc5)N(CC)CC)[nH]4)cc3)cc2)[nH]1,Papp,[1],36.3 ×10⁻⁶ cm/s
same,concentration at 24 h,[7],132 nM
same,bioavailability,[8],4.3%
same,concentration at 4 h,[4],471 nM
CCN(CC)[C@@H](C(=O)N1CCC[C@H]1c1ncc(-c2ccc(-c3ccc(-c4cnc([C@@H]5CCCN5C(=O)[C@@H](NC(=O)OC)C(C)C)[nH]4)cc3)cc2)[nH]1)c1ccccc1,AUC at 4 h,[2],0.034 µM·h
same,Papp,[1],70.6 ×10⁻⁶ cm/s
same,concentration at 4 h,[3],13 nM
same,concentration at 4 h,[4],1230 nM
O=C([C@@H](c1ccccc1)N1CCCC1)N1CCC[C@H]1c1ncc(-c2ccc(-c3ccc(-c4cnc([C@@H]5CCCN5C(=O)[C@@H](c5ccccc5)N5CCCC5)[nH]4)cc3)cc2)[nH]1,AUC at 4 h,[2],0.005 µM·h
same,Papp,[1],3.6 ×10⁻⁶ cm/s
same,concentration at 4 h,[3],0.7 nM
same,concentration at 4 h,[4],80 nM
O=C([C@@H](c1ccccc1)N1CCOCC1)N1CCC[C@H]1c1ncc(-c2ccc(-c3ccc(-c4cnc([C@@H]5CCCN5C(=O)[C@@H](c5ccccc5)N5CCOCC5)[nH]4)cc3)cc2)[nH]1,AUC at 4 h,[2],0.054 µM·h
same,Papp,[1],34.9 ×10⁻⁶ cm/s
same,concentration at 4 h,[3],11 nM
same,concentration at 4 h,[4],239 nM
CCN(CC)[C@@H](C(=O)N1CCC[C@H]1c1ncc(-c2ccc(-c3ccc(-c4cnc([C@@H]5CCCN5C(=O)[C@@H](c5ccccc5)N5CCCCC5)[nH]4)cc3)cc2)[nH]1)c1ccccc1,Papp,[1],33.7 ×10⁻⁶ cm/s
COC(=O)N[C@@H](C(=O)N1CCC[C@H]1c1ncc(-c2ccc(-c3ccc(-c4cnc([C@@H]5CCCN5C(=O)CNC(C)=O)[nH]4)cc3)cc2)[nH]1)c1ccccc1,Papp,[1],1.2 ×10⁻⁶ cm/s
COC(=O)N[C@@H](C(=O)N1CCC[C@H]1c1ncc(-c2ccc(-c3ccc(-c4cnc([C@@H]5CCCN5C(=O)[C@@H](C)NC(C)=O)[nH]4)cc3)cc2)[nH]1)c1ccccc1,Papp,[1],2.8 ×10⁻⁶ cm/s
COC(=O)N[C@@H](C(=O)N1CCC[C@H]1c1ncc(-c2ccc(-c3ccc(-c4cnc([C@@H]5CCCN5C(=O)[C@H](C)NC(C)=O)[nH]4)cc3)cc2)[nH]1)c1ccccc1,Papp,[1],10 ×10⁻⁶ cm/s
COC(=O)N[C@@H](C)C(=O)N1CCC[C@H]1c1ncc(-c2ccc(-c3ccc(-c4cnc([C@@H]5CCCN5C(=O)[C@H](NC(=O)OC)c5ccccc5)[nH]4)cc3)cc2)[nH]1,Papp,[1],36.3 ×10⁻⁶ cm/s
COC(=O)N[C@@H](C)C(=O)N1CCC[C@H]1c1ncc(-c2ccc(-c3ccc(-c4cnc([C@@H]5CCCN5C(=O)[C@H](C)NC(=O)OC)[nH]4)cc3)cc2)[nH]1,AUC at 4 h,[2],0.281 µM·h
same,Papp,[1],20.7 ×10⁻⁶ cm/s
same,concentration at 4 h,[3],57 nM
same,concentration at 4 h,[4],134 nM
COC(=O)N[C@H](C)C(=O)N1CCC[C@H]1c1ncc(-c2ccc(-c3ccc(-c4cnc([C@@H]5CCCN5C(=O)[C@@H](C)NC(=O)OC)[nH]4)cc3)cc2)[nH]1,Papp,[1],4.7 ×10⁻⁶ cm/s
CCOC(=O)N[C@@H](C)C(=O)N1CCC[C@H]1c1ncc(-c2ccc(-c3ccc(-c4cnc([C@@H]5CCCN5C(=O)[C@H](C)NC(=O)OCC)[nH]4)cc3)cc2)[nH]1,Papp,[1],45.1 ×10⁻⁶ cm/s
COC(=O)NC(C)(C)C(=O)N1CCC[C@H]1c1ncc(-c2ccc(-c3ccc(-c4cnc([C@@H]5CCCN5C(=O)C(C)(C)NC(=O)OC)[nH]4)cc3)cc2)[nH]1,Papp,[1],2.6 ×10⁻⁶ cm/s
COC(=O)NC1(C(=O)N2CCC[C@H]2c2ncc(-c3ccc(-c4ccc(-c5cnc([C@@H]6CCCN6C(=O)C6(NC(=O)OC)CC6)[nH]5)cc4)cc3)[nH]2)CC1,Papp,[1],0.2 ×10⁻⁶ cm/s
COC(=O)NCC(=O)N1CCC[C@H]1c1ncc(-c2ccc(-c3ccc(-c4cnc([C@@H]5CCCN5C(=O)[C@H](NC(=O)OC)c5ccccc5)[nH]4)cc3)cc2)[nH]1,Papp,[1],16.4 ×10⁻⁶ cm/s
same,concentration at 4 h,[4],26.2 nM
COC(=O)N[C@@H](C(=O)N1CCC[C@H]1c1ncc(-c2ccc(-c3ccc(-c4cnc([C@@H]5CCCN5C(C)=O)[nH]4)cc3)cc2)[nH]1)c1ccccc1,Papp,[1],50 ×10⁻⁶ cm/s
COC(=O)N[C@@H](C(=O)N1CCC[C@H]1c1ncc(-c2ccc(-c3ccc(-c4cnc([C@@H]5CCCN5C(=O)[C@@H]5CCCO5)[nH]4)cc3)cc2)[nH]1)c1ccccc1,AUC at 4 h,[2],0.127 µM·h
same,Papp,[1],48 ×10⁻⁶ cm/s
same,concentration at 4 h,[3],27 nM
same,concentration at 4 h,[4],802 nM
CN(C)[C@@H](C(=O)N1CCC[C@H]1c1ncc(-c2ccc(-c3ccc(-c4cnc([C@@H]5CCCN5C(=O)[C@H]5CCCO5)[nH]4)cc3)cc2)[nH]1)c1ccccc1,concentration at 24 h,[11],30 nM
same,clearance,[12],18 mL/min/kg
same,Vd,[13],14 L/kg
same,concentration at 24 h,[14],539 nM
same,half-life,[15],14 h
same,bioavailability,[16],60%
same,half-life,[17],7.8 h
same,AUC at 24 h,[18],1.42 µM·h
same,AUC at 24 h,[19],0.436 µM·h
same,Vd,[20],82 L/kg
same,Papp,[1],15.8 ×10⁻⁶ cm/s
same,bioavailability,[21],6%
same,clearance,[22],57 mL/min/kg
same,Vd,[23],60 L/kg
same,concentration at 24 h,[24],25 nM
CN(C)[C@@H](C(=O)N1CCC[C@H]1c1ncc(-c2ccc(-c3ccc(-c4cnc([C@@H]5CCCN5C(=O)[C@@H]5CCCO5)[nH]4)cc3)cc2)[nH]1)c1ccccc1,AUC at 4 h,[2],0.062 µM·h
same,Papp,[1],20 ×10⁻⁶ cm/s
same,concentration at 4 h,[3],27 nM
same,concentration at 4 h,[4],563 nM
CCN(C)[C@@H](C(=O)N1CCC[C@H]1c1ncc(-c2ccc(-c3ccc(-c4cnc([C@@H]5CCCN5C(=O)[C@@H](c5ccccc5)N(C)CC)[nH]4)cc3)cc2)[nH]1)c1ccccc1,AUC at 4 h,[2],0.006 µM·h
same,clearance,[25],88 mL/min/kg
same,Papp,[1],10.6 ×10⁻⁶ cm/s
same,concentration at 4 h,[3],2 nM
same,concentration at 4 h,[4],1980 nM
CCN(CC)[C@@H](C(=O)N1CCC[C@H]1c1ncc(-c2ccc(-c3ccc(-c4cnc([C@@H]5CCCN5C(=O)[C@@H](c5ccccc5)N(CC)CC)[nH]4)cc3)cc2)[nH]1)c1ccccc1,AUC at 4 h,[2],0.013 µM·h
same,clearance,[25],4 mL/min/kg
same,Papp,[1],25.5 ×10⁻⁶ cm/s
same,concentration at 4 h,[3],6 nM
same,concentration at 4 h,[4],1090 nM
COC(=O)N[C@@H](C(=O)N1CCC[C@H]1c1ncc(-c2ccc(-c3ccc(-c4cnc([C@@H]5CCCN5C(=O)[C@H](NC(=O)OC)c5ccccc5)[nH]4)cn3)cc2)[nH]1)c1ccccc1,Papp,[1],17.7 ×10⁻⁶ cm/s
COC(=O)N[C@@H](C(=O)N1CCC[C@H]1c1ncc(-c2ccc(-c3ccc(-c4cnc([C@@H]5CCCN5C(=O)[C@H](NC(=O)OC)c5ccccc5)[nH]4)nc3)cc2)[nH]1)c1ccccc1,Papp,[1],17.9 ×10⁻⁶ cm/s
COC(=O)N[C@@H](C(=O)N1CCC[C@H]1c1ncc(-c2ccc(-c3ncc(-c4cnc([C@@H]5CCCN5C(=O)[C@H](NC(=O)OC)c5ccccc5)[nH]4)cn3)cc2)[nH]1)c1ccccc1,AUC at 24 h,[5],0.021 µM·h
same,half-life,[15],1.7 h
same,Papp,[1],18.6 ×10⁻⁶ cm/s
same,clearance,[22],36 mL/min/kg
same,Vd,[23],1.7 L/kg
same,bioavailability,[8],0.5%
O=C(C(c1ccccc1)N1CC[C@H](F)C1)N1CCC[C@H]1c1ncc(-c2ccc(-c3ccc(-c4cnc([C@@H]5CCCN5C(=O)C(c5ccccc5)N5CC[C@H](F)C5)[nH]4)cc3)cc2)[nH]1 (stereo in doubt; 21),permeability,[1],impermeable
